Usually AC50 stands for the concentration giving half of the maximal activity seen. Broadly, the EC50 is the midpoint of the concentration-response curve. As a reminder, the CC50 is the concentration at which the toxic effect on the cells reaches its halfway point.

The target of test [1] is Adenosylmethionine-8-amino-7-oxononanoate aminotransferase (Mycobacterium tuberculosis, UniProt P9WQ81). Description: Mycobacterium tuberculosis BioA enzyme inhibitor Measured in Biochemical System Using Plate Reader - 2163-02_Inhibitor_Dose_CherryPick_Activity. In kind it is functional, Mycobacterium tuberculosis UT205.
Sequence of Adenosylmethionine-8-amino-7-oxononanoate aminotransferase (P9WQ81 whole entry): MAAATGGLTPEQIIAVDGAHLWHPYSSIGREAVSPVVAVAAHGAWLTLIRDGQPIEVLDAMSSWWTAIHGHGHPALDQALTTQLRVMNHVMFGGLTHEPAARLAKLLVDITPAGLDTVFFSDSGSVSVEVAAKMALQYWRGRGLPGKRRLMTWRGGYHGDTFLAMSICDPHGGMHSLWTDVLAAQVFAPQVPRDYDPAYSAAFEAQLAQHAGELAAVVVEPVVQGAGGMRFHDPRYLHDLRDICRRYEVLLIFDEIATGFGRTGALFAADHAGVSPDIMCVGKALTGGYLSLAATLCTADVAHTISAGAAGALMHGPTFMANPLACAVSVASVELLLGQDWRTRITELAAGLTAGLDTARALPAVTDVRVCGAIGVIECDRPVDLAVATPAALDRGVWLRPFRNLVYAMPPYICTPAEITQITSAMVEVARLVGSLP
Test [2] in a line: cytotoxicity toward DRD oncogenic fibroblasts, dose response, cell-based, non-viral oncogenic, luminescence (AID 1934). Type of test: functional. Conditions: Homo sapiens.
The subject of test [3] is HEK293. Description: cells. Type of test: functional, cell-based. The settings on record: Homo sapiens.
The subject of test [4] is HEK293. Put plainly: NOD1 signaling inhibitors, primary screen, cell-based, luminescence, uHTS (AID 1578). Type of test: functional. Conditions: Homo sapiens.
Test [5] has as its system BJ. Description: cytotoxicity toward BJ-TERT fibroblasts, dose response, cell-based, RAS-independent, luminescence (AID 1933). Type of test: functional. Conditions: Homo sapiens.
Test [6] concerns BJ. Put plainly: cells. Type of test: functional, cell-based. The settings on record: Homo sapiens.
The subject of test [7] is BJ. Description: cytotoxicity toward Ras-transformed BJeLR fibroblasts, dose response, cell-based, alamar blue fluorescence, cherrypicked samples (AID 2631).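 Further: confirmatory dose-response assay in RAS-dependent BJ fibroblasts engineered with TERT, LT and ST, with cytotoxicity read by fluorescence.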 Type of test: functional. Conditions: Homo sapiens. On the technique in general: The colour change of resazurin is a common sign of viable cells or microbes.
Test [8] concerns HEK293. Put plainly: NOD2 signaling inhibitors in MDP-stimulated cells, cell-based, uHTS, luminescence (AID 2001). Conditions: Homo sapiens. Type of test: functional.
The test system of test [9] is BJ. Description: cytotoxicity toward BJ-TERT-LT-ST fibroblasts, dose response, cell-based, RAS-independent, luminescence (AID 1935).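 Further: BJ fibroblasts immortalized with TERT plus LT and ST oncogenes.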 Conditions: Homo sapiens. Type of test: functional.
The test system of test [10] is HEK293. Put plainly: cells. Type of test: functional, cell-based. Conditions: Homo sapiens. The source holds these as a separate data set.
Test [11] concerns the target T1, Short transient receptor potential channel 4 (Mus musculus, UniProt Q9QUQ5).
T1 sequence (Q9QUQ5 whole entry): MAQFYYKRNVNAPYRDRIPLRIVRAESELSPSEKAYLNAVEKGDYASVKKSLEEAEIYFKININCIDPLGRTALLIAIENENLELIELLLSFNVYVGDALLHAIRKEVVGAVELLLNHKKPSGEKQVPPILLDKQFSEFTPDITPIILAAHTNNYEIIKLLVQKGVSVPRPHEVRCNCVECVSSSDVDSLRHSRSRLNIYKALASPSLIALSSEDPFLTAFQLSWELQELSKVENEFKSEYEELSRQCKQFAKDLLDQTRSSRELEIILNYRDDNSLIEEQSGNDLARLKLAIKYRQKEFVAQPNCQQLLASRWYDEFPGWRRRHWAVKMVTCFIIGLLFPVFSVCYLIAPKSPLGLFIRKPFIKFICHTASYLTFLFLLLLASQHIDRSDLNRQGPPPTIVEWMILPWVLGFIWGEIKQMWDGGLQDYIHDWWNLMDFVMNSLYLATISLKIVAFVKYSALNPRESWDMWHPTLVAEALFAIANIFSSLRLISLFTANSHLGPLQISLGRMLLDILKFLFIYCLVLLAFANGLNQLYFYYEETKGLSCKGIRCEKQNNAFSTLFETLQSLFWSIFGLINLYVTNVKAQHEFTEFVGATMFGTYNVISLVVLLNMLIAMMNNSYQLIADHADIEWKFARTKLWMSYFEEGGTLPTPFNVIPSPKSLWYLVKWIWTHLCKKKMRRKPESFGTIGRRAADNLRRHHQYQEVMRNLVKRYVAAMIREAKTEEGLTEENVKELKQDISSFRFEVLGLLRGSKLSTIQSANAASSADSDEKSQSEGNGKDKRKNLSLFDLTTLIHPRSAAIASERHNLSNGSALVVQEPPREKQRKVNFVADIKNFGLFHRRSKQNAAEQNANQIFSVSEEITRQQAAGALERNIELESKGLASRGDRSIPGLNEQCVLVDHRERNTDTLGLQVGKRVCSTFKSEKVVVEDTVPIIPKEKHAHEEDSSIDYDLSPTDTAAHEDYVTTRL
Description: mouse TRPC4 channel inhibitors, dose response, cell-based, HEK293 TRPC4/mu-opioid, Fluo-4 calcium (AID 434942).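 Further: potency of inhibitors blocking the TRPC4 calcium response.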 In kind it is functional.

Test [12] addresses Dual specificity tyrosine-phosphorylation-regulated kinase 1A (Rattus norvegicus, UniProt Q63470). Type of test: biochemical, Homo sapiens.
For test [13], the target named is T2, High affinity choline transporter 1 (Homo sapiens, UniProt Q9GZV3).
T2 sequence (Q9GZV3 whole entry): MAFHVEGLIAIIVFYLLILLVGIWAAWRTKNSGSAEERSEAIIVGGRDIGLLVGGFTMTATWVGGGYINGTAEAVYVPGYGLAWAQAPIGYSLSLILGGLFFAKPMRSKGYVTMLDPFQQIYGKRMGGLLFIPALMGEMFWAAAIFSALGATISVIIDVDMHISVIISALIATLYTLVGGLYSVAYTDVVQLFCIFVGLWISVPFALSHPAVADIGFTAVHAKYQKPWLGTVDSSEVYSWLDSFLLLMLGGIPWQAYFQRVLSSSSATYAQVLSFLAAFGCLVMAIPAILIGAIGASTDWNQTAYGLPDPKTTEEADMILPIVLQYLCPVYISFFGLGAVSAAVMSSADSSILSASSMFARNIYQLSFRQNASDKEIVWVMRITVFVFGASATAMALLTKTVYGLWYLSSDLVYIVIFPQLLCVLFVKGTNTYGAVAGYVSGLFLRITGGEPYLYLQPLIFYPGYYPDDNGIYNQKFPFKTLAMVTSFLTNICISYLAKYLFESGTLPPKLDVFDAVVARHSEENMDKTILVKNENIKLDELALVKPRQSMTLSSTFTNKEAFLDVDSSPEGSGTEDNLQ
Description: CHT inhibitors, dose response, cell-based, 5-point CRC, membrane potential dye (AID 504840). In kind it is functional.

The nature of test [14]: C. albicans growth with fluconazole, confirmation, fluorescence, retest (AID 2467). Type of test: functional, cell-based.
The target of a further test is T3, Aminopeptidase N (Plasmodium falciparum FcB1/Columbia, UniProt O96935).
T3 sequence (O96935 whole entry): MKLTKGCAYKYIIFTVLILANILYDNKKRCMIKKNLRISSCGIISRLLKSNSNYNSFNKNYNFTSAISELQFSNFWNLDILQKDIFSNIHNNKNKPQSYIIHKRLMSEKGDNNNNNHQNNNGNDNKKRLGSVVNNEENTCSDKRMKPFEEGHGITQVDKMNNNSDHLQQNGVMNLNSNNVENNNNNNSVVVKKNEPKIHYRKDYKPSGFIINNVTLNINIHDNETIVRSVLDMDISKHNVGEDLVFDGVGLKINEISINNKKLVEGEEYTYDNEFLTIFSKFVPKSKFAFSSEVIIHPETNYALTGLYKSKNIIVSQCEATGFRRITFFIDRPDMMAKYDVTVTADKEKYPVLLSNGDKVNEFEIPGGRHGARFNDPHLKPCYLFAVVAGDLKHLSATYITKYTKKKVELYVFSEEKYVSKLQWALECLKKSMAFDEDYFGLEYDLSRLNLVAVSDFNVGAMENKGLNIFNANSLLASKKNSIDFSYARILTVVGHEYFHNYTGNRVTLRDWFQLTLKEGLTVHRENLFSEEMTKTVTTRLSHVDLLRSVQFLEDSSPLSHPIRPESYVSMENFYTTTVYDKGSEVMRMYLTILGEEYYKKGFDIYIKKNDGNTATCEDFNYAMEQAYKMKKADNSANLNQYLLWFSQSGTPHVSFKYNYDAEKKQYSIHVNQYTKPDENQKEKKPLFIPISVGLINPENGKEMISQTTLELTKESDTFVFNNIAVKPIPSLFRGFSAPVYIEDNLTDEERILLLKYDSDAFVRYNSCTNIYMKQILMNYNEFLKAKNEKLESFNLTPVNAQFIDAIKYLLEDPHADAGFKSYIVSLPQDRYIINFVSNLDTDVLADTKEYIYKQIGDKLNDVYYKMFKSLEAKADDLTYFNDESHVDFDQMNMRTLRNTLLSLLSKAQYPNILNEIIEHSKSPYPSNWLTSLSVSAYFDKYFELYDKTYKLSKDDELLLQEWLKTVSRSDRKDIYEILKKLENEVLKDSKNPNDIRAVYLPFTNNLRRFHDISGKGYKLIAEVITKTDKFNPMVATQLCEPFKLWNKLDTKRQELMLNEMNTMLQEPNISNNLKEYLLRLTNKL
Put plainly: P. falciparum M1AAP inhibitors, biochemical, fluorogenic H-Leu-NHMec substrate, 1536-well (AID 1445). The arrangement: species or system Plasmodium falciparum 3D7, 3D7.

Another test has as its system INS1. Put plainly: beta cell apoptosis inhibitors, cytokine rescue, dose response, luminescence, retest (AID 449756).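 Further: cell death triggered by IL-1 beta plus TNF-alpha plus IFN-gamma mixture; protective hits raise ATP signal compared with cytokine alone wells.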 Type of test: functional, cell-based. The settings on record: Rattus norvegicus.
Test [15] is described as follows: NIH-3T3 fibroblast cytotoxicity, dose response, cytotoxicity control, cell-based, fluorescence, Alamar Blue, secondary assay (AID 2327).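 Further: NIH-3T3 mouse fibroblasts cultured with fluconazole at 8 µg/mL.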 In kind it is functional.
For test [16], the target named is T2, High affinity choline transporter 1. Description: CHT inhibitors, dose response, cell-based, 10-point CRC, membrane potential dye (AID 588401).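 Further: membrane potential dye fluorescence of choline-evoked depolarization via CHT.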 In kind it is functional.
Test [17] can be described thus: HEp-2 cell cytotoxicity, dose response, cytotoxicity control for RSV inhibitor project, HTS (AID 2410). Conditions: human respiratory syncytial virus. Type of test: functional.
Test [18] in a line: Shn3 3'UTR reporter inhibitors, dose response, cell-based, Clone20 osteoblasts, firefly luciferase, cherry-picked (AID 624132).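 Further: firefly luciferase luminescence from reporter carrying the Shn3 3'UTR in osteoblasts.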 Type of test: functional.
The target of the next test is Protein Wnt-3a (Mus musculus, UniProt P27467). Description: Wnt3a-driven reporter signaling inhibition, dose response, selectivity assay for Gli-SUFU antagonist project, Wnt-LIGHT cells, luminescence (AID 651570).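 Further: Wnt-LIGHT reporter cells stimulated with conditioned medium from Wnt3a-producing cells.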 Type of test: functional. Conditions: read-out: IC50_Mean.
Sequence of Protein Wnt-3a (P27467 whole entry): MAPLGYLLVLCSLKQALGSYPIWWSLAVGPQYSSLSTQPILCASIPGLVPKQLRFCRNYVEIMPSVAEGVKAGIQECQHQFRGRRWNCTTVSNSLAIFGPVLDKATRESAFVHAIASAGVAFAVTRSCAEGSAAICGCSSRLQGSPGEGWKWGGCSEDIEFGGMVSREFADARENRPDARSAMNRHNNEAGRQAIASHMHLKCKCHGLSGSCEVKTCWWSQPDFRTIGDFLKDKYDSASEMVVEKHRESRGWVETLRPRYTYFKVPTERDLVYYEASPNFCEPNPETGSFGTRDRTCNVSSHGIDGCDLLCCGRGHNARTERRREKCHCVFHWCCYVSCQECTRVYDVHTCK
A short description of test [19]: control 3'UTR Renilla luciferase suppression, dose response, counter-screen for Shn3 inhibitor project, cell-based, Clone20-Shn3RL, cherry-picked (AID 624133). Type of test: functional. On the technique in general: The purpose of a counterscreen is to sort out artefacts and off-target activity.
Test [20] in a line: HepG2 cell cytotoxicity, dose response, cytotoxicity control for Shn3 inhibitor project, CellTiter-Glo, cherry-picked (AID 624134). Type of test: functional, cell-based. (In ATP-based viability assays light output follows the ATP content of the culture.)

Active and inactive are the calls of the source. Bounds are passed on as bounds.

For the compound `O=C1CCCc2c1cc(C(=O)NCc1ccco1)c(=O)n2-c1ccc(Cl)cc1`, the half-maximal activity concentration (AC50) in test [1] was 3.08 µM (active).

Consider `Cc1ccc(Nc2nc(N)nc(CCl)n2)c(C)c1`, for which the EC50 in test [2] was 0.423 µM (active); in the test on HEK293 [4], 13.9 µM (active); in the test on BJ [5], < 0.12 µM (active); with BJ [6], 1.05 µM (active); with BJ [7] it was 4.45 µM (active); in the test on BJ [9], 10.4 µM (active). The IC50 with HEK293 [3] is 12.8 µM (active); in the test with HEK293 [8], 10.5 µM (inactive); in the test on HEK293 [10], > 20 µM (inactive).

`N#C/C(=N\Nc1cccc([N+](=O)[O-])c1)C(=O)c1ccc(Br)cc1`: the concentration for a half-maximal effect (EC50) in test [11] was 3.35 µM (active); in test [14], 4.48 µM (active); in [15], 56.9 µM (active). For the same compound, the values for the AC50 (in test [12]; in the test on INS1) were 2.91 µM (active) and 6.82 µM (active), respectively. The IC50 in test [13] is 9.02 µM (active); on Aminopeptidase N it was 40.5 µM (active); in [16], 3.36 µM (active).

On to `C[C@@H]1C[C@H]2OC(=O)C3(CO3)[C@H]2[C@H](O)[C@]2(C)C(=O)C3OC3[C@@H]12` (stereo partly drawn), for which the EC50 in test [2] was 14.2 µM (active); with BJ [5] it was 17 µM (active); in the test on BJ [6], 14.3 µM (active); in the test on BJ [7], > 133 µM (inactive). Besides, the 50% cytotoxic concentration (CC50) in test [17] is 15.9 µM (active).

For `Cc1ccc(-n2ncc3c2CC(C)(C)CC3NC(=O)CCc2cccnc2)cc1` (stereo not drawn), the AC50 in test [1] is 9.11 µM (active).

Turning to `CC(Sc1nc2ccccc2c(=O)n1C)C(=O)NC1CCCCC1C` (stereo not drawn), the AC50 in [18] was 3.46 µM (active); in test [19] it was 3.78 µM (active); in test [20], 26.2 µM (active). The IC50 on Protein Wnt-3a was 4.15 µM (active).

Source of the values: ChEMBL document CHEMBL1201862, “PubChem BioAssay data set” (2004).
